This series deals with fractional excretion of uric acid. Description: Post hoc analysis of clinical trial specimens: fractional excretion of uric acid and renal function (Example 3). The series is classed as in vivo, human. Particulars: 50 mg TID. An excerpt:
In another study in healthy men and postmenopausal women, the trial period included a single-dose phase (Day 1) and a multiple-dose phase (Days 2-6). […] With multiple-dose oral administration (twice a day (BID) or three times a day (TID) on days 2-6), this decrease was more pronounced.

Turning to `CC[C@@H]1C(C)=NN=C(c2ccc(OC)c(OC)c2)c2cc(OC)c(OC)cc21` [(S)-tofisopam], the “Effect on other common parameters of renal function” value is recorded as “no measurable effect”, the “Fractional excretion of uric acid” value is on record as “increases” and the Renal injury entry is “no sign of renal injury”.

Values taken from patent US9408852B2, “Method of lowering serum uric acid levels with (S)-tofisopam” (PHARMOS CORPORATION, priority 2011, dated 2016).
